Assay results from patent publication US20240285728A1, “TARGETED PROTEIN DELIVERY TO MAMMALIAN EMBRYOS AND THERAPEUTIC APPLICATIONS USING EXOSOMES” (University of Maryland, Baltimore, priority 2021, published 2024).
One block for each molecule: values may come before it.

Assays:
[1] = system: exosome production in the developing embryos; assay: Exosome profile, exosome numbers and CD63 expression in E8.5 embryos after GW4869 injections; format: in vivo, mouse
Protocol: Mouse models of diabetic embryopathy. […] NTDs were examined at E10.5.
Exosome extraction and labelling. Cells and debris were removed from cell culture media via centrifugation at 2000×g for 30 minutes at 4° C. Supernatants containing the cell-free culture media were transferred to a new tube without disturbing the pellet. Total Exosome Isolation (#4478359, Invitrogen, Carlsbad, CA) at 0.5 volume of the collected supernatants was added to each tube. The cell culture media/reagent mixture was mixed well via vortex and pipetting up and down until it became a homogenous solution, and then was incubated at 4° C. overnight. After incubation, the samples were centrifuged at 10,000×g for 1 hour at 4° C. and the supernatants were discarded. Exosomes were contained in the pellet at the bottom of the tube (not visible in most cases). The pellet was re-suspended in 1 ml of 1×PBS, and NanoSight (#NS300, Malvern Panalytical) was used to measure the exosomes. The presence of exosomes was confirmed by Western blot using the exosomal marker CD63 (Santa Cruz Biotechnology, Dallas, TX). Exosomes were suspended in 1 ml Diluent C (Sigma, St Louis, MO) and labeled by incubating with PKH67 fluorescent dye (Sigma, St Louis, MO) for 5 min in the dark at room temperature. […]

[2] = system: embryos of nondiabetic dams; conditions: mouse, in vivo
Protocol: Mouse models of diabetic embryopathy. […] Briefly, ten-week old female mice were intravenously injected daily with 75 mg/kg STZ over two days to induce diabetes. Diabetes was defined as 12 hours fasting blood glucose level of ≥250 mg/dL. Male and female mice were paired at 3:00 PM, and day 0.5 (E0.5) of pregnancy was established by the presence of the vaginal plug at 8:00 AM the next morning. Female mice injected with vehicle served as the nondiabetic controls. On E7.5, E8.5, E9.5 or E10.5 mice were euthanized and conceptuses were dissected out of the uteri for biochemical and molecular analysis. The exosome inhibitor GW4869 (Sigma, St, Louis, MO) was injected daily to nondiabetic pregnant dams from E7.0 to E8.0. NTDs were examined at E10.5.
Statistical analyses. Data were presented as means±standard errors (SE). In animal studies, experiments were repeated at least three times, and embryonic samples from each replicate were from different dams. Statistical differences were determined by one-way analysis of variance (ANOVA) using the SigmaPlot 12.5 (SigmaStat, San Jose, CA). In one-way ANOVA analysis, Tukey test was used to estimate the significance of the results (P<0.05). The Chi square test and Fisher Exact test were used to estimate the significance of NTD incidence.

[3] = system: (p)-PERK, (p)-IRE1α, (p)-eIF2α and CHOP; conditions: mouse, in vivo
Protocol: (§3) Mouse models of diabetic embryopathy. The mouse model of diabetic embryopathy was described previously [4,22,36,45,46]. Briefly, ten-week old female mice were intravenously injected daily with 75 mg/kg STZ over two days to induce diabetes. Diabetes was defined as 12 hours fasting blood glucose level of ≥250 mg/dL. Male and female mice were paired at 3:00 PM, and day 0.5 (E0.5) of pregnancy was established by the presence of the vaginal plug at 8:00 AM the next morning. Female mice injected with vehicle served as the nondiabetic controls. On E7.5, E8.5, E9.5 or E10.5 mice were euthanized and conceptuses were dissected out of the uteri for biochemical and molecular analysis.
(§4) Immunoblotting. Immunoblotting was performed as described by Yang at el [4]. Lysis buffer (Cell Signaling Technology, Danvers, MA) containing a protease inhibitor cocktail (Sigma, St Louis, MO) was used to extract protein. Equal amounts of protein and Precision Plus Protein Standards (Bio-Rad, Hercules, CA) were resolved by SDS-PAGE and transferred onto Immunobilon-P membranes (Millipore, Billerica, MA). […] Signals were detected using the SuperSignal West Femto Maximum Sensitivity Substrate kit (Thermo Fisher Scientific, Waltham, MA). […]

neuroepithelial cells = conditions: mouse, in vivo
Protocol: as §3, §4

[4] = mouse, in vivo
Protocol: Briefly, ten-week old female mice were intravenously injected daily with 75 mg/kg STZ over two days to induce diabetes. Diabetes was defined as 12 hours fasting blood glucose level of ≥250 mg/dL. Male and female mice were paired at 3:00 PM, and day 0.5 (E0.5) of pregnancy was established by the presence of the vaginal plug at 8:00 AM the next morning. Female mice injected with vehicle served as the nondiabetic controls. On E7.5, E8.5, E9.5 or E10.5 mice were euthanized and conceptuses were dissected out of the uteri for biochemical and molecular analysis. The exosome inhibitor GW4869 (Sigma, St, Louis, MO) was injected daily to nondiabetic pregnant dams from E7.0 to E8.0. NTDs were examined at E10.5.

[5] = system: Fgf2 promoter in yolk sac endoderm PYS2 cell line; assay: Fgf2 promoter luciferase reporter activity under high glucose; format: cell-based; conditions: suppressed by high glucose (25 mM glucose), PYS2 cells
Protocol: (§1) Cell culture and transfection. The C17.2 mouse neural stem cell line from the European Collection of Cell Culture (Salisbury, UK) and the yolk sac endoderm PYS2 cell line (ATCC® CRL2745™) were maintained in DMEM (5 mM glucose) supplemented with 10% FBS, 100 U/ml penicillin, and […] streptomycin at 37° C. in a humidified atmosphere of 5% CO2. Mouse recombinant FGF2 (#3139-FB; R&D Systems, Minneapolis, MN) was used at a final concentration of 10 ng/ml. Lipofectamine 2000 (Invitrogen, Carlsbad, CA) was used according to the manufacturer's protocol for transfection of siFGF2 and control siRNA (Invitrogen, Carlsbad, CA) into the cells. After seeding for 12 h, cells were transfected with recombinant FGF2 and cultured in 1% FBS for 8 h, after which cells were cultured in 10% FBS and collected after 48 h for analysis.

Survivin promoter = assay: Luciferase reporter activity driven by the Survivin promoter; format: cell-based
Protocol: as §1

yolk sac cell line = assay: Exosome number and Survivin protein in exosomes of a yolk sac cell line; format: cell-based
Protocol: as §1
(§2) Exosome extraction and labelling. Cells and debris were removed from cell culture media via centrifugation at 2000×g for 30 minutes at 4° C. Supernatants containing the cell-free culture media were transferred to a new tube without disturbing the pellet. Total Exosome Isolation (#4478359, Invitrogen, Carlsbad, CA) at 0.5 volume of the collected supernatants was added to each tube. The cell culture media/reagent mixture was mixed well via vortex and pipetting up and down until it became a homogenous solution, and then was incubated at 4° C. overnight. […]

[6] = system: isolated E8 Flk-1^+ progenitors; assay: Survivin protein in exosomes of isolated E8 Flk-1+ progenitors; format: cell-based, mouse; conditions: high glucose
Protocol: Isolation of Flk-1+ endothelial progenitor cells. Flk-1^+ progenitor cells were isolated from the E8 yolk sac. Yolk sacs were minced in phosphate-buffered saline PBS (Thermo Fisher Scientific, Waltham, MA), digested with 1 mg/ml of collagenase type I (Sigma, St Louis, MO) and incubated on an orbital shaker at 37° C. for 30-45 min. Following the collagenase treatment, cells were washed twice with growth medium (EBM-2, fetal bovine serum (10%), hFGF-basic (0.5 ml), hydrocortisone (0.2 ml), VEGF (0.5 ml), IGF-1 (0.5 ml), ascorbic acid (0.5 ml), hEGF (0.5 ml), GA-100 (0.5 ml)) before being plated. Cells were trypsinized (Lonza, Walkersville, MD) and sorted for Flk-1 with MACS microbeads (Miltenyi Biotec, Bergisch Gladbach, Germany) as per the kit instructions. The Flk-1^+ progenitor cells were collected and cultured in growth medium as mentioned above.
as §2, with “tube.” for “tube. The cell culture media/reagent mixture was mixed well via vortex and pipetting up and down until it became a homogenous solution, and then was incubated at 4° C. overnight.”

Survivin = Survivin mRNA and protein expression in normal and high glucose culture; format: cell-based; conditions: normal glucose 5 mM / high glucose 25 mM culture
Protocol: as §1
Real-time PCR (RT-PCR). mRNA was isolated from embryos using the RNeasy Mini kit (Qiagen, Hilden, Germany), and then reversely transcribed using the high-capacity cDNA archive kit (Applied Biosystem, Grand Island, NY). Real time-PCR for Fgf2, Fgfr, Bmp4, Vegfr2, mVegfr1, Calnexin, GRP94, PDIA, BiP, IRE1α, CHOP, Survivin and β-actin were performed using the Maxima SYBR Green/ROX qPCR Master Mix assay (Thermo Fisher Scientific, Waltham, MA) in the Step One Plus system (Applied Biosystem, Grand Island, NY).

- NTD Embryos [2]: 7
- NTD rate [2]: 7.29%
- ER stress in neurulation stage embryos [3]: triggered
- detection in the embryo [4]: reached the embryo
Molecule: O=C(/C=C/c1ccc(/C=C/C(=O)Nc2ccc(C3=NCCN3)cc2)cc1)Nc1ccc(C2=NCCN2)cc1 [GW4869]
- exosome production in the developing embryos [1]: inhibited
- NTD induction [2]: mimicked the teratogenic effect of maternal diabetes
- neuroepithelial cell apoptosis (neuroepithelial cells): triggered

Molecule: O=C(O)C(Cc1c[nH]c2ccccc12)N1C(=O)c2ccccc2C1=O (stereo not drawn) [RG108]
- Fgf2 promoter-driven luciferase activity [5]: restored

Molecule: FGF2: recombinant fibroblast growth factor 2, used at 10 ng/ml
- luciferase reporter activity driven by the Survivin promoter (Survivin promoter): stimulated
- Survivin in exosomal cargo (yolk sac cell line): rescued
- Survivin expression in exosomes [6]: abolished this suppression
- Survivin mRNA and protein expression (Survivin): normalized
